The record followed here is US20120129842A1, “BISTHIAZOLE INHIBITORS OF PRO-MATRIX METALLOPROTEINASE ACTIVATION” (priority 2010, published 2012).

Experiment [1] addresses proMMP13(1-268) (SEQ ID NO:7) (Homo sapiens, UniProt P45452). The experiment in a line: ProMMP13/Plasmin P126 Activation Assay. It counts as biochemical. On the set-up: 6xHis (C); made in house; host or cells: HEK293 (transient, secreted). The note with it: 8 nM proMMP13, 16 nM plasmin, 40 min 37° C. The method, then:
On the day of assay, proMMP13(1-268) (SEQ ID NO:7) purified from HEK293 cells and plasmin were diluted to 160 nM and 320 nM, respectively, in assay buffer. The reaction volume was 50 μL. […] The plate was sealed and incubated for 40 min at 37° C. […] Plasmin was not reactive towards P-126 substrate under these conditions.

For experiment [2], the target named is T1, full-length proMMP9(1-707) (SEQ ID NO:1) (Homo sapiens, UniProt P14780, R574P).
T1 construct: made in house; host or cells: HEK293 (proMMP9, secreted); E. coli (MMP3)
T1 sequence (P14780 20-707 R574P): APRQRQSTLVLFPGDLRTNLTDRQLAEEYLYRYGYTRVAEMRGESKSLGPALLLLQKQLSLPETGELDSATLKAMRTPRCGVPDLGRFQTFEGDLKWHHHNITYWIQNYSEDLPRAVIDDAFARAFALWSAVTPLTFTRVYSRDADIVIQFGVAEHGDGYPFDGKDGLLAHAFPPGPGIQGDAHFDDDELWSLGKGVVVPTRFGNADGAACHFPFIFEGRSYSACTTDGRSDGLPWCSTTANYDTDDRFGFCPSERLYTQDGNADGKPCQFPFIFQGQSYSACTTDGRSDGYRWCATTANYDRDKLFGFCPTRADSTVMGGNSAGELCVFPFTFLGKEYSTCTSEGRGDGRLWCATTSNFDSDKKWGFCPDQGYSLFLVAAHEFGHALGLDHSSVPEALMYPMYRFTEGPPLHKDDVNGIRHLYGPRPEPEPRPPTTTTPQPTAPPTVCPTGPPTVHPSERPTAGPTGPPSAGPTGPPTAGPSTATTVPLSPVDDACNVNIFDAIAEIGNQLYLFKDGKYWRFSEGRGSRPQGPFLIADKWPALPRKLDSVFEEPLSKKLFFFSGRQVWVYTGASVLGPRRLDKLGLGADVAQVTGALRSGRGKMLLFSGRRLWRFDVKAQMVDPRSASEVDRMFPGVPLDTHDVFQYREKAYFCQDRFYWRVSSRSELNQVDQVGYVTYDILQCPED
The experiment in a line: proMMP9/MMP3 P126 Activation Assay. The format is biochemical. The note with it: 20 nM proMMP9, 20 nM MMP3, 80 min 37° C. The method, then:
The reaction volume was 50 μL. […] Reactivity of residual MMP3 towards P-126 substrate was minimal under these conditions.

Counter-ions that a name gives are not always drawn.

Take `Cc1nc(C2CCN(C)CC2)sc1-c1csc(Nc2cc(C(N)=O)ccc2OC(C)C)n1` [Example 157, 4-Isopropoxy-3-((4′-methyl-2′-(1-methylpiperidin-4-yl)-[4,5′-bithiazol]-2-yl)amino)benzamide.TFA]: the IC50 (usually the point on the concentration scale where inhibition reaches its midpoint) was 0.86 µM in experiment [1] and 0.033 µM in experiment [2].
